Measured values reported in BindingDB's records for doi:10.1016/S0960-894X(96)00246-6 (1996).
pIC50: −log10 of the molar value.

Test: Inhibition of ADP-induced human platelet aggregation

pIC50	Compound
7.00	CC(C)[C@H](NC(=O)[C@H](CC(=O)O)NC(=O)CCCOc1ccc(C(=N)N)cc1)C(=O)O [2-{2-[4-(4-Carbamimidoyl-phenoxy)-butyrylamino]-3-carboxy-propionylamino}-3-methyl-butyric acid (FK633)]
6.64	CC(C)(C)[C@H](NC(=O)[C@H](CC(=O)O)NC(=O)CCCOc1ccc(C(=N)N)cc1)C(=O)O
6.92	CN(C(=O)[C@H](CC(=O)O)NC(=O)CCCOc1ccc(C(=N)N)cc1)[C@@H](Cc1ccc(O)cc1)C(=O)O [(S)-3-[4-(4-Carbamimidoyl-phenoxy)-butyrylamino]-N-[(S)-1-carboxy-2-(4-hydroxy-phenyl)-ethyl]-N-methyl-succinamic acid]
6.89	CC(C)C[C@H](NC(=O)[C@H](CC(=O)O)NC(=O)CCCOc1ccc(C(=N)N)cc1)C(=O)O [(S)-2-{(S)-2-[4-(4-Carbamimidoyl-phenoxy)-butyrylamino]-3-carboxy-propionylamino}-4-methyl-pentanoic acid]
5.35	COc1ccc(C[C@H](NC(=O)[C@H](CC(=O)O)NC(=O)CCCCOc2ccc(C(=N)N)cc2)C(=O)O)cc1 [(S)-3-[5-(4-Carbamimidoyl-phenoxy)-pentanoylamino]-N-[(S)-1-carboxy-2-(4-methoxy-phenyl)-ethyl]-succinamic acid]
